From patent US20040152769A1, “Modified carbamate-containing prodrugs and methods of synthesizing same” (priority 2002, published 2004)
Values after ≈ are worked out from the molar mass of the structure shown. Read-outs that look alike come from different tables or passages of the source.

Tests used:
[1] = pH 2.0 stability of prodrugs of the native compound (0.06M phosphate buffer, 37° C., 2 hours, RP-HPLC); details: for pH 2 Stability: pH 2.0 phosphate buffer, 37° C.; for % Area of Pro-drug / % Area NC: pH 2.0, 37° C., 2 hours, RP-HPLC; for % Area NC: native compound formed
Protocol: The samples were incubated in a water bath at 37° C. for 2 hours. Each sample was then removed from the water bath and vortexed.

[2] = Chemical hydrolysis of Dilantin®-conjugate (PEG-3) at a pH of about 2; type: physicochemical; details: 0.06M phosphate buffer pH 2.0, 37° C.
Protocol: Aliquots of a stock solution of Dilantin®-PEG3 conjugate in acetonitrile were spiked into 0.06M phosphate buffer, pH 2.0 (2 μl stock solution in 998 μl buffer). The sample was incubated in a water bath at 37° C. At time points one hour apart, a portion of the sample was removed and submitted for immediate analysis by RP-HPLC.

[3] = Stability of Dilantin®-PEG3 conjugate in rat plasma (spike controls, RP-HPLC); type: in vitro ADME
Protocol: Also using a stock solution of Dilantin®-PEG3 conjugate in acetonitrile, the following spike controls were prepared in rat plasma: 1 μg/ml, 750 ng/ml, 500 ng/ml and 250 ng/ml. After vortexing, […] of acetonitrile was added. Each sample was centrifuged immediately and the resultant supernatant was removed and the pellet discarded. The supernatant was concentrated and reconstituted with […] of 30% acetonitrile. […] Samples were submitted for RP-HPLC anaylsis. […] Thus, near complete plasma hydrolysis of the conjugate may occur within 1 minute. Studies were repeated a second day to confirm results.

[4] = Solubility of Dilantin®-PEG3 conjugate in acetonitrile and deionized water (HPLC); type: physicochemical
Protocol: 5,5-diphenylhydrantoin and Dilantin®-PEG3 conjugate prodrug solutions were made in acetonitrile with concentrations of 1.12 mg/mL and 0.8 mg/mL, respectively.
Solutions of 5,5-diphenylhydrantoin and Dilantin®-PEG3 conjugate were then made in deionized water at concentrations of 0.99 mg/mL and 0.93 mg/mL, respectively. These solutions were mixed well by vortexing. 1 mL aliquots were taken and spun by centrifuge at 5000 rpm for five minutes. The resultant supemant was taken and analyzed by HPLC for solution concentration. The concentration of 5,5-diphenylhydrantoin was 4 μg/mL. The concentration of Dilantin®-PEG3 conjugate was 160 μg/mL.

[5] = Rat plasma stability of selected prodrugs (37° C., RP-HPLC); type: in vitro ADME; details: for % comp. 0′ / % comp. 60′ / % comp. 120′ / % comp. 240′ / % comp. 360′ / % comp. 480′: 37° C., peak area; for % comp. 0′: 0 minutes; for % comp. 60′: 60 minutes; for % comp. 120′: 120 minutes; for % comp. 240′: 240 minutes; for % comp. 360′: 360 minutes; for % comp. 480′: 480 minutes
Protocol: Using 1 mg/mL stock solutions of a prodrug described in Example 6.8 above in acetonitrile, 990 μL of rat plasma was spiked with 10 μL of conjugate. The plasma spikes were incubated at 37° C. 100 μL of each sample at each time-point was removed and the reaction was quenched with 500 μL of acetonitrile. Each sample was vortexed and centrifuged immediately and the resultant supernatant was removed, discarding the pellet. The supernatant was concentrated and reconstituted with 100 μL of 30% acetonitrile. Prior to transferring samples to HPLC vials, the samples were centrifuged for 15 minutes at 14000 rpm at 2° C. to remove particulates. 10 μL of 10 μg/mL standard and 75 μL of reconstituted sample were injected for RP-HPLC analysis.
The stability of the prodrugs was measured by analyzing samples at the following time-points: 0, 60, 120, 240, 360, and 480 minutes. Retention time, peak area, and UV spectrum were measured for each sample and standard. […] A Waters 2690 HPLC was used for sample analysis (column: Delta Pak C18 Guard Column, C18, 5 m, 2.1 mm×50 mm; Collected spectrum: 210-380 nm. Extracted chromatogram: 240 nm; Mobile Phase; 0.1% TFA in Water/0.1% TFA in acetonitrile; flow Rate: 0.5 mL/minute).

[6] = Oral absorption in rats, parent compound in plasma by LC/MS/MS; details: rat, p.o., result in words; for Oral Absorption: first part of Table 2
Protocol: 100 μL of plasma was extracted with 500 μL of acetonitrile, vortexed and centrifuged. The supernatant was removed, evaporated to dryness, and then reconstituted with 100 μL of 30% methanol. The reconstituted samples were then centrifuged to remove particulates. The supernatant was removed and transferred to HPLC vials for detection and quantitation of the parent compound by LC/MS/MS.

For `CCOCCOCCOCCC(=O)OCC` [Compound 2], the “pH 2 Stability” value [1] was “None”.

With `COC(=O)C1=C(C)NC(C)=C(C(=O)OC)C1c1cccc(N(C(=O)NCCCN2CCC(c3cccc(OC)c3)CC2)C(=O)OC)c1.Cl` [Compound 11] the “pH 2 Stability” value [1] was over 2 h.

In the case of `COCCOCCOCCOC(=O)N1C(=O)NC(c2ccccc2)(c2ccccc2)C1=O` [Dilantin®-PEG3 conjugate], the “Dilantin ® -PEG3 (Remaining), %” value ([2]; time 0 hours) is reported as 100%, the “Dilantin ® -PEG3 (Remaining), %” value ([2]; time 2 hours) is reported as 96.79% and the “Dilantin ® -PEG3 (Remaining), %” value ([2]; time 3 hours) is reported as 94.99%. The “time to near complete plasma hydrolysis of the conjugate” value ([3]; rat plasma) was at most 1 min, the “species found in extracted rat plasma samples” value ([3]; rat plasma spiked at 1 μg/ml, 750, 500 and 250 ng/ml, RP-HPLC) was “only the presence of phenyloin” and the solubility in acetonitrile ([4]; acetonitrile, 1.12 mg/mL (5,5-diphenylhydrantoin) and 0.8 mg/mL (conjugate)) was 100%. For the same molecule, the “solubility in water compared with native drug” value ([4]; deionized water) was “more soluble in water than the native drug” and the “concentration in supernatant (solubility in water)” value ([4]; deionized water, made at 0.99 mg/mL and 0.93 mg/mL, centrifuged, HPLC) was 160 µg/mL.

For `COCCOCCOC(=O)N(C(=O)NCCCN1CCC(c2cccc(OC)c2)CC1)c1cccc(C2C(C(=O)OC)=C(C)NC(C)=C2C(=O)OC)c1.Cl` [Compound 21], the “% Area of Pro-drug” value [1] was 100%, the “% Area NC” value [1] was 0% and the “pH 2 Stability” value [1] was over 2 h.

`O=C1NC(=O)C(c2ccccc2)(c2ccccc2)N1` [5,5-diphenylhydrantoin, reference compound] showed a solubility in acetonitrile [4] of 100% and a solubility ([4]; water, thermodynamic from solid) of 4 µg/mL (≈ 15.9 µM).

For `COCCOCCOCCOCCOC(=O)N(C(=O)NCCCN1CCC(c2cccc(OC)c2)CC1)c1cccc(C2C(C(=O)OC)=C(C)NC(C)=C2C(=O)OC)c1.Cl` [Compound 17], the “% comp. 0′” value ([5]; rat plasma) was 99.7%, the “% comp. 60′” value ([5]; rat plasma) was 99.0% and the “% comp. 120′” value ([5]; rat plasma) was 98.5%. For the same molecule, the “% comp. 240′” value ([5]; rat plasma) was 98.0%, the “% comp. 360′” value ([5]; rat plasma) was 97.0% and the “% comp. 480′” value ([5]; rat plasma) was 96.0%. The “% Area of Pro-drug” value [1] was 100%, the “% Area NC” value [1] was 0% and the “pH 2 Stability” value [1] was over 2 h.

For `COC(=O)C1=C(C)NC(C)=C(C(=O)OC)C1c1cccc(NC(=O)NCCCN2CCC(c3cccc(OC)c3)CC2)c1` [Native drug, 1,4-Dihydro-[3-[[[[3-[4-(3-methoxyphenyl)-1-piperidinyl]propyl]amino]carbonyl]amino]phenyl]-2,6-dimethyl-3,5-pyridinedicarboxylic acid, dimethyl ester], the “pH 2 Stability” value was over 2 h.

In the case of `CCOC(=O)COCCOCCOC` [Compound 4], the “pH 2 Stability” value [1] is reported as “None”.

With `COCCOC(=O)N(C(=O)NCCCN1CCC(c2cccc(OC)c2)CC1)c1cccc(C2C(C(=O)OC)=C(C)NC(C)=C2C(=O)OC)c1.Cl` [Compound 22] the “% Area of Pro-drug” value [1] was 100%, the “% Area NC” value [1] was 0% and the “pH 2 Stability” value [1] was over 2 h.

With `COCCOCCOCCOCCOCCOCCOCCOCCOC(=O)N(C(=O)NCCCN1CCC(c2cccc(OC)c2)CC1)c1cccc(C2C(C(=O)OC)=C(C)NC(C)=C2C(=O)OC)c1.Cl` [Compound 19] the “% comp. 0′” value ([5]; rat plasma) was 97.0%, the “% comp. 60′” value ([5]; rat plasma) was 97.0% and the “% comp. 120′” value ([5]; rat plasma) was 96.5%. The “% comp. 240′” value ([5]; rat plasma) was 96.0%, the “% comp. 360′” value ([5]; rat plasma) was 95.3% and the “% comp. 480′” value ([5]; rat plasma) was 94.0%. The “pH 2 Stability” value [1] was over 2 h.

With `CCOC(=O)N(C(=O)NCCCN1CCC(c2cccc(OC)c2)CC1)c1cccc(C2C(C(=O)OC)=C(C)NC(C)=C2C(=O)OC)c1.Cl` [Compound 14] the “% comp. 0′” value ([5]; rat plasma) was 98.0%, the “% comp. 60′” value ([5]; rat plasma) was 98.0% and the “% comp. 120′” value ([5]; rat plasma) was 97.5%. For the same molecule, the “% comp. 240′” value ([5]; rat plasma) was 96.5%, the “% comp. 360′” value ([5]; rat plasma) was 96.0% and the “% comp. 480′” value ([5]; rat plasma) was 95.0%. For the same molecule, the “pH 2 Stability” value [1] was over 2 h.

For `COCCOCCOCCOC(=O)N(C(=O)NCCCN1CCC(c2cccc(OC)c2)CC1)c1cccc(C2C(C(=O)OC)=C(C)NC(C)=C2C(=O)OC)c1` [Compound 6], the “Oral Absorption” value [6] was “Not Detected” and the “pH 2 Stability” value [1] was over 2 h.

With `COC(=O)C1=C(C)NC(C)=C(C(=O)OC)C1c1cccc(N(C(=O)NCCCN2CCC(c3cccc(OC)c3)CC2)C(=O)OC(CO)CO)c1.Cl` [Compound 16] the “% comp. 0′” value ([5]; rat plasma) was 0%, the “% comp. 60′” value ([5]; rat plasma) was 0% and the “% comp. 120′” value ([5]; rat plasma) was 0%. The “% comp. 240′” value ([5]; rat plasma) was 1%, the “% comp. 360′” value ([5]; rat plasma) was 1% and the “% comp. 480′” value ([5]; rat plasma) was 1%. For the same molecule, the “stability in rat plasma” value ([5]; rat plasma, result in words) was “unstable”, the “prodrug converted to the native compound” value ([5]; within 30 seconds of being introduced to rat plasma) was about 100% and the “Oral Absorption (Relative AUCs)” value ([6]; second part of Table 2) was “Minimal”.

With `COCCOCCOCCOCCOCCOCCOCCOCCOC(=O)N(C(=O)NCCCN1CCC(c2cccc(OC)c2)CC1)c1cccc(C2C(C(=O)OC)=C(C)NC(C)=C2C(=O)OC)c1` [Compound 8] the “Oral Absorption” value [6] was “Not Detected” and the “pH 2 Stability” value [1] was over 2 h.

With `COCCOCCOCCOC(=O)N(C(=O)NCCCN1CCC(c2cccc(OC)c2)CC1)c1cccc(C2C(C(=O)OC)=C(C)NC(C)=C2C(=O)OC)c1.Cl` [Compound 13] the “% comp. 0′” value ([5]; rat plasma) was 99.0%, the “% comp. 60′” value ([5]; rat plasma) was 98.0% and the “% comp. 120′” value ([5]; rat plasma) was 98.0%. The “% comp. 240′” value ([5]; rat plasma) was 97.0%, the “% comp. 360′” value ([5]; rat plasma) was 96.0% and the “% comp. 480′” value ([5]; rat plasma) was 95.0%. For the same molecule, the “% Area of Pro-drug” value [1] was 100%, the “% Area NC” value [1] was 0% and the “pH 2 Stability” value [1] was over 2 h.

In the case of `CCOC(=O)CCOCCOCCOCCOCCOCCOCCOCCOCCOC` [Compound 3], the “pH 2 Stability” value [1] is reported as “None”.

In the case of `CCOC(=O)CCOCCOCCOC` [Compound 1], the “pH 2 Stability” value [1] is reported as “None”.

For `CCOC(=O)OCCOCCOCCOC` [Compound 5], the “pH 2 Stability” value [1] was “None”.
